Series [1] relates to rats bearing hepatic tumors (C5 clonal derivative epithelioid neoplasms). As to the kind of experiment: In vivo efficacy, MR imaging at 1.5 Tesla of rats bearing hepatic tumors (Tables IV A-D). As to conditions: i.v.; for Tumor Contrast To Noise: 30 minute delay. Details: species or system rat. The method, then:
Mn-EDTA-ODP and Mn-EDTA-DDP liposomes of both 30 nm and 100 nm (contrast agents within the scope of the invention) were prepared in accordance with Example 8, injected intraveneously via a tail vein injection into rats bearing hepatic tumors (C5 clonal derivative epithelioid neoplasms), and the rats imaged using a 1.5 Tesla GE Signa Clinical Magnet equipped with a linear knee coil. Animals were anesthesized with a 10:1 mixture v/v of ketamine (100 mg/ml) and acepoumozine (10 mg/ml) prior to imaging. Imaging parameters were: TR=250; TE=12; Matrix=256×192; NEX=8; FOV 16 cm; Slice Thickness=3 mm; Slice Gap=1 mm. Images were taken in the coronal plane, mapped off an axial scout image. For comparison, rats were also injected with MnCl2, and MnCl2 liposomes, prepared in accordance with Example 15.
In Table IV A, imaging was preformed with one rat at each dose. S/N denotes signal to noise ratio.
In Table IV B, the "*" denotes a 30 minutes delay in imaging. Also, NA denotes that imaging was not done at the indicated dosage. The liposomes employed were composed of 80 mole percent egg phosphatidylcholine (EPC) and 20 mole percent cholesterol. With the Mn-EDTA-DDP liposomes, there was a 1:3 molar ratio of Mn-EDTA-DDP to lipid in the liposomes (lipid was 8:2 EPC/cholesterol). The data was obtained from one rat imaged at each dose.
In Table IV C, NT denotes that no tumors were detected, and NA denotes that imaging not done at the indicated dosage.
In Table IV D, NT denotes that no tumors were detected, and NA denotes that imaging not done at the indicated dosage.

The test system of a further series is Outbred ICR mice. As to the kind of experiment: In vivo toxicity, LD50 in mice after intravenous tail vein injection (Table V). Details: species or system mouse. As to conditions: i.v. tail vein. The procedure:
Outbred ICR mice (Harlan Sprague Dawley, Indianapolis, Ind.) were injected intraveneously via a tail vein injection with various doses of Mn-EDTA-DDP and Mn-EDTA-DDP liposomes, prepared in accordance with Example 8, and the LD50 measured. As a comparison, the mice were also injected with MnCl2 and MnCl2 liposomes.
In Table V, MnCl2 liposomes denotes manganese chloride salt entrapped in 100 nm diameter liposomes comprised of 8:2 EPC/cholesterol. Also, Mn-EDTA-DDP in liposomes refers to 100 nm liposomes comprised of 1:3Mn-EDTA-DDP to lipid (where the lipid is 8:2 EPC/cholesterol).

A short description of series [2]: In vitro relaxivity of Mn-EDTA-DDP and Mn-EDTA-DDP albumin suspensions at 0.5 Tesla (Table III). In kind it is physicochemical. As to conditions: 0.5 Tesla (21.3MHz), in mM^-1 s^-1. The method, then: Mn-EDTA-DDP and Mn-EDTA-DDP albumin suspensions (contrast agents within the scope of the invention) were prepared in accordance with Example 11, except that water instead of saline was used. The samples scanned by NMR using a 0.5 Tesla (21.3MHz) Toshiba MRI scanner (Nasu, Japan) to determine relaxivity. The results were compared with similar scans for other compounds not within the scope of the invention. Specifically, scans were made of contrast agent of the invention, Mn-EDTA-DDP, Mn-EDTA-DDP albumin suspensions (both heated to 55° C., and unheated), and compared with scans of PBS, Gd-DTPA, MnCl2, and MnCl2 albumin suspensions. MnCl2, and the MnCl2 liposomes were prepared in accordance with Example 15.

The nature of series [3]: In vitro relaxivity of liposomal contrast agents at 0.5 Tesla (Table I). In kind it is physicochemical. Conditions: 0.5 Tesla (21.3 MHz); liposomes EPC/cholesterol 8:2, 33 mole percent compound. The method, then: Liposomal contrast agents of the invention, prepared in accordance with Example 8, were serially diluted from a stock solution of known concentration. Diluted concentrations for testing were held constant at 0.5 mM, 0.25 mM, 0.125 mM, 0.100 mM, 0.05 mM, and 0.025 mM, respectively. Samples were scanned on a Toshiba MRT 50A 0.5 Tesla (21.3 MHz) clincal magnet equipped with a QD head coil (Toshiba MRI scanner, Nasu, Japan). Signal intensities for resulting scans were then statistically analyzed using a computer curve fitting program (Fit All, MTR Software, version 1.1). Resulting relaxivities were regressed against the concentration to determine R1 (1/T1 mmol sec^-1) and R2 ([…]). The results were compared with similar scans for other compounds not within the scope of the present invention. Specifically, as a comparison for the contrast agents of the invention, 0.5 Tesla scans were made of Gd-DTPA (no liposome), Mn-EDTA-MEA (no liposome), Mn-EDTA-MEA (incorporated into a liposome of 0.1 micron), and phosphate buffered saline (PBS).
In all liposome examples in Table I, the lipid concentration is 200 mM, and all liposomes are composed of 80 mole percent egg phosphatidyl choline (EPC) and 20 mole percent cholesterol. […]

The conditions of series [4]: background; compared with gadolinium alone; cited from earlier work.

With `[Cl][Mn][Cl]` [MnCl2, manganese chloride], the “Tumor Contrast To Noise” value came out at 12 in series [1] (0.5 μM/kg); 16 in series [1] (1.0 μM/kg); 35.9 in series [1] (2.5 μM/kg); 31.3 in series [1] (5.0 μM/kg); 29.6 in series [1] (10.0 μM/kg). Besides, the “Percent Liver Enhancement” value was 0% in series [1] (0.5 μM/kg, delayed post (30 minutes delay)); 0% in series [1] (0.5 μM/kg, post); 0% in series [1] (1.0 μM/kg, delayed post (30 minutes delay)); 0% in series [1] (1.0 μM/kg, post); 29.4% in series [1] (2.5 μM/kg, delayed post (30 minutes delay)); 25% in series [1] (2.5 μM/kg, post). In addition, the “Percent Liver Enhancement” value in series [1] (5.0 μM/kg, delayed post (30 minutes delay)) is 21%; in series [1] (5.0 μM/kg, post) it was 43%; in series [1] (10 μM/kg, delayed post (30 minutes delay)) it was 61%; in series [1] (10 μM/kg, post) it was 81%. Besides, the “Contrast to Noise” value in series [1] (0.5 μM/kg, post) amounted to 19; in series [1] (0.5 μM/kg, pre), 28; in series [1] (1.0 μM/kg, post) it was 23; in series [1] (1.0 μM/kg, pre), 37.5; in series [1] (2.5 μM/kg, post) it was 17.9; in series [1] (2.5 μM/kg, pre) it was 13.1. The “Contrast to Noise” value is 28.3 in series [1] (5.0 μM/kg, post); 21.3 in series [1] (5.0 μM/kg, pre); 29.2 in series [1] (10.0 μM/kg, post); 9.3 in series [1] (10.0 μM/kg, pre). The “Interpolated LD50s” value in the series on Outbred ICR mice is 250 µmol/kg. In series [2] (with and without albumin), the “R1, relaxivity” value is 8.73 ± 0.928. Besides, the “R2, relaxivity” value in series [2] (with and without albumin) was determined as 39.45 ± 0.515.
With “Manganese N,N'-Bis-(Carboxy-Decylamidomethyl-N-2,3-Dihydroxypropyl)-Ethylenediamine- N,N'-Diacetate [Mn-EDTA-DDP]”, in the series on Outbred ICR mice, the “Interpolated LD50s” value worked out at 240 µmol/kg. Also, in series [2] (with and without albumin), the “R1, relaxivity” value was determined as 9.83 ± 0.332 and the “R2, relaxivity” value is given as 15.20 ± 0.393.
Take `O=C([O-])CN(CCN(CC(=O)[O-])CC(=O)[O-])CCN(CC(=O)[O-])CC(=O)[O-].[Gd+3]` [Gd-DTPA]: in series [3], the “R1 (1/T1), relaxivity” value is recorded as 4.68 ± 0.279 per millimole of paramagnetic and the “R2 (1/T2), relaxivity” value is 5.17 ± 0.148 per millimole of paramagnetic. Besides, in series [4], the “toxicity (in words)” value is recorded as “much less toxicity”. Moreover, in series [2] (1.0 mM), the “R1, relaxivity” value is listed as 4.58 ± 0.143 and the “R2, relaxivity” value is 5.41 ± 0.65.
